In US8956999B2, “Herbicides” (Syngenta Limited, priority 2007, dated 2015):

Assays:
Assay type in all cases: in vivo
[1] = tested on: Alopecurus myosuroides (ALOMY); experiment: Example B pre-emergence herbicidal test, glasshouse; conditions: 312 h, rate 250 g/ha, evaluated after 13 days, 100=total damage to plant, 0=no damage to plant
Experimental: (§1) Seeds of a variety of test species were sown in standard soil in pots. After cultivation for one day (pre-emergence) or after 8 days cultivation (post-emergence) under controlled conditions in a glasshouse (at 24/16° C., day/night; 14 hours light; 65% humidity), the plants were sprayed with an aqueous spray solution derived from the formulation of the technical active ingredient in acetone/water (50:50) solution containing 0.5% Tween 20 (polyoxyethelyene sorbitan monolaurate, CAS RN 9005-64-5). The test plants were then grown in a glasshouse under controlled conditions in a glasshouse (at 24/16° C., day/night; 14 hours light; 65% humidity) and watered twice daily. After 13 days for pre and post-emergence, the test was evaluated (100=total damage to plant; 0=no damage to plant). Test Plants: Alopecurus myosuroides (ALOMY), Avena fatua (AVEFA), Setaria faberi (SETFA), Echinochloa crus-galli (ECHCG), Solanum nigrum (SOLNI) and Amaranthus retoflexus (AMARE)

[2] = tested on: Amaranthus retoflexus (AMARE); experiment: as above; conditions: Amaranthus retroflexus, 312 h, rate 250 g/ha, evaluated after 13 days, 100=total damage to plant, 0=no damage to plant
Experimental: as §1

Avena fatua (AVEFA) [3] = experiment: as above; conditions: 312 h, rate 250 g/ha, evaluated after 13 days, 100=total damage to plant, 0=no damage to plant
Experimental: as §1

[4] = tested on: Echinochloa crus-galli (ECHCG); experiment: as above; conditions: Echinochloa crus-galli, 312 h, rate 250 g/ha, evaluated after 13 days, 100=total damage to plant, 0=no damage to plant, read-out: Pre-Emergence Activity ECHGG
Experimental: as §1

Setaria faberi (SETFA) [5] = experiment: as above; conditions: Setaria faberi, 312 h, rate 250 g/ha, evaluated after 13 days, 100=total damage to plant, 0=no damage to plant, read-out: Pre-Emergence Activity SEFTA
Experimental: as §1

[6] = tested on: Alopecurus myosuroides (ALOMY); experiment: Example B post-emergence herbicidal test, glasshouse; conditions: 312 h, rate 250 g/ha, evaluated after 13 days, read-out: Post-Emergence Activity ALOMY (100=total damage to plant; 0=no damage to plant)
Experimental: as §1

[7] = tested on: Amaranthus retoflexus (AMARE); experiment: as above; conditions: Amaranthus retroflexus, 312 h, rate 250 g/ha, evaluated after 13 days, read-out: Post-Emergence Activity AMARE (100=total damage to plant; 0=no damage to plant)
Experimental: as §1

Avena fatua (AVEFA) [8] = experiment: as above; conditions: 312 h, rate 250 g/ha, evaluated after 13 days, read-out: Post-Emergence Activity AVEFA (100=total damage to plant; 0=no damage to plant)
Experimental: as §1

[9] = tested on: Echinochloa crus-galli (ECHCG); experiment: as above; conditions: 312 h, rate 250 g/ha, evaluated after 13 days, read-out: Post-Emergence Activity ECHGG (100=total damage to plant; 0=no damage to plant)
Experimental: as §1

Setaria faberi (SETFA) [10] = experiment: as above; conditions: 312 h, rate 250 g/ha, evaluated after 13 days, read-out: Post-Emergence Activity SEFTA (100=total damage to plant; 0=no damage to plant)
Experimental: as §1

Structure (SMILES)	pest or weed control at 250 g/ha [1] [%]	pest or weed control at 250 g/ha [2] [%]	pest or weed control at 250 g/ha (Avena fatua (AVEFA) [3]) [%]	pest or weed control at 250 g/ha [4] [%]	pest or weed control at 250 g/ha (Setaria faberi (SETFA) [5]) [%]	pest or weed control at 250 g/ha [6] [%]	pest or weed control at 250 g/ha [7] [%]	pest or weed control at 250 g/ha (Avena fatua (AVEFA) [8]) [%]	pest or weed control at 250 g/ha [9] [%]	pest or weed control at 250 g/ha (Setaria faberi (SETFA) [10]) [%]
CC(=O)OC1=C(c2nc(-c3ccc(Br)cn3)sc2C)C(=O)C(C)(C)OC1(C)C [Compound P3]	20	0	0	30	20	50	0	30	90	90
Cc1sc(-c2ccc(Br)cn2)nc1C1=C(OC(=O)C2CC2)C(C)(C)OC(C)(C)C1=O [Compound P4]	0	0	0	10	20	40	0	0	90	90
Cc1sc(-c2ccc(Br)cn2)nc1C1=C(OC(=O)C(C)(C)C)C(C)(C)OC(C)(C)C1=O [Compound P5]	0	0	0	0	0	0	0	0	0	0
CC(=O)OC1=C(c2nc(-c3ccc(Br)cc3C)sc2C)C(=O)C(C)(C)OC1(C)C [Compound P6]	90	0	80	70	100	100	0	90	100	100
Cc1cc(Br)ccc1-c1nc(C2=C(OC(=O)C3CC3)C(C)(C)OC(C)(C)C2=O)c(C)s1 [Compound P7]	70	0	0	80	100	80	0	80	100	100
CC(=O)OC1=C(c2sc(-c3ccc(Cl)cc3)nc2C)C(=O)C(C)(C)OC1(C)C [Compound P9]	20	0	0	50	40	90	30	80	100	80
Cc1sc(-c2ccc(Cl)cc2)cc1C1C(=O)C(C)(C)C(=O)C(C)(C)C1=O [Compound T5]						40	0	0	70	50
Cc1sc(-c2ccc(Cl)cc2F)nc1C1C(=O)C(C)(C)C(=O)C(C)(C)C1=O [Compound T9]	0	0	0	20	40	90	0	40	90	80
Cc1sc(-c2ccc(Cl)cc2F)nc1C1C(=O)C(C)(C)OC(C)(C)C1=O [Compound T21]	60	0	0	100	100	100	0	90	100	100
Cc1sc(-c2ccc(Cl)c(F)c2)nc1C1C(=O)C(C)(C)OC(C)(C)C1=O [Compound T22]	70	0	20	90	100	100	0	90	100	100
